Values joined by “and” are separate entries in the source; they are usually repeats but may differ in a detail not shown here. Identical values can stand only once.
Each compound was assayed against T1, Leukotriene B4 receptor 2 (Homo sapiens, UniProt Q9NPC1).
T1 sequence (Q9NPC1 whole entry): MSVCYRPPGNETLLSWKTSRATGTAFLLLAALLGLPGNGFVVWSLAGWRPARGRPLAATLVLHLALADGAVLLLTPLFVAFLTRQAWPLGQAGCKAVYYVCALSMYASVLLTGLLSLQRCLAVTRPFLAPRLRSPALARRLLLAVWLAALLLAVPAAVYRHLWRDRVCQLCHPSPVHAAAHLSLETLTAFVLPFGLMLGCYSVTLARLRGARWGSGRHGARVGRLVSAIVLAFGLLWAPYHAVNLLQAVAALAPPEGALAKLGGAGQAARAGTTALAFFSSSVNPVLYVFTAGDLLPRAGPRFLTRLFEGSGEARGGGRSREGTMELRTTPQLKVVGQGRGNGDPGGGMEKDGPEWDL

Ki	Compound
35 nM and 15 nM	COc1ccc(/C=C/CCCCOc2ccc(C(=O)c3cccc(C(=O)O)c3)cc2CCC(=O)O)cc1 [(Z)-3-{3-(2-Carboxy-ethyl)-4-[6-(4-methoxy-phenyl)-hex-5-enyloxy]-benzoyl}-benzoic acid]
885 nM	CCCCCCCCC(O)/C=C/c1cccc(C)n1 (centres undefined) [CGS 23114]
293 nM and 364 nM	CCc1cc(C(C)=O)c(O)cc1OCCCCC(C)(C)c1nnn[nH]1 [CGS 23167]
24 nM and 8 nM	COc1ccc(/C=C/CCCCOc2ccc(Oc3cccc(C(=O)O)c3)cc2CCC(=O)O)cc1 [CGS 23130]
